Tested on: human malignant U373 glioma cells
Experiment: Computer tomography, signal density of cell pellets
Type: cell-based
Method: For CT and FACS human U373 glioma cells were grown under the same conditions in 75 cm^2 culture flasks (Corning Costar, Bodenheim, Germany) (70% confluency). Accutase™ (PAA laboratories, Pasching, Austria) was added to achieve detachment of the cells which were harvested and subsequently aliquoted into Eppendorf tubes (6×10^6 cells per tube). As in the investigations performed by fluorescence microscopy, the cells in the first tube served as a control (PBS only). The cells in the other tubes were incubated with 260 μM Ultravist, 260 μM TIBA in PBS and 26 μM, 260 μM and 2.6 mM conjugates 1-4 in PBS. After a 20 minute incubation period at 37° C. in an atmosphere of 5% CO2, the cells were washed three times in PBS and centrifuged at 800 rpm for 5 minutes.
The inner ear spiral CT protocol consisted of: tube voltage 120 KV, effective mAs 550, time of imaging TI: 1.5, SL 0.75/0.75/4.5, FOV: 50 0/52, kernel: U70, window: intervertebral disc.
3D-images were obtained using InSpace Software (Syngo CT 2006G) (Siemens AG, Erlangen, Germany).
After an incubation of 20 minutes at 37° C./5% CO2 the cells were washed three times with PBS buffer and centrifuged at 800 rpm (rounds per minute) for 5 minutes. The fluorescence was measured in Becton Dickinson FACSCalibur as described under 1.4. The computer tomography was performed as described under 1.5.1. The examinations were repeated two times. […]
An Orbita CT spiral was used: tube voltage 120 KV, effective mAs 550, time of imaging TI: 1.5, SL 0.75/0.75/4.5, FOV: 50 0/52, GT: 0.0, kernel: U70, window: intervertebral disc. 3D images were made with the InSpace Software (Syngo CT 2006G) (Siemens AG, Erlangen, Germany). […]

## PKKKRKVK(FITC)GGK(TIBA) (FITC, GGK linker, TIBA) [conjugate 1, FITC-labelled correct NLS of the SV 40 T antigen with TIBA]
26 μM, 20 min
  CT signal density of cell pellets: only low signal density values
260 μM, 20 min
  CT signal density of cell pellets: significant increase in signal density
2.6 mM, 20 min
  CT signal density of cell pellets: significant increase in signal density
Varying concentrations (26 μM, 260 μM and 2.6 mM) and PBS alone
  CT signal density of cell pellets: did result in differences in signal densities

Source: patent US20090203877A1, “X-RAY-DENSE CONJUGATE” (Eberhard-Karls-Universitaet Tuebingen Universitaetsklinkum, priority 2006, published 2009)
